In US8822449B2, “Substituted aminoindanes and analogs thereof, and the pharmaceutical use thereof” (Sanofi, priority 2008, dated 2014):

molecular target: T1, sodium-proton exchanger of subtype 3 (NHE3) (Homo sapiens, UniProt P48764); assay: Recovery of intracellular pH (pHi) after acidification in LAP1 cells stably expressing NHE3 (BCECF fluorescence, FLIPR); type: cell-based; conditions: LAP1 cells stably expressing NHE3; pH recovery after acidification; range 1 is % inhibition at 10 μM; read-out: Activity range (inhibitory effect on NHE3)
T1 construct: expressed in transfected cells
T1 sequence (P48764 26-834): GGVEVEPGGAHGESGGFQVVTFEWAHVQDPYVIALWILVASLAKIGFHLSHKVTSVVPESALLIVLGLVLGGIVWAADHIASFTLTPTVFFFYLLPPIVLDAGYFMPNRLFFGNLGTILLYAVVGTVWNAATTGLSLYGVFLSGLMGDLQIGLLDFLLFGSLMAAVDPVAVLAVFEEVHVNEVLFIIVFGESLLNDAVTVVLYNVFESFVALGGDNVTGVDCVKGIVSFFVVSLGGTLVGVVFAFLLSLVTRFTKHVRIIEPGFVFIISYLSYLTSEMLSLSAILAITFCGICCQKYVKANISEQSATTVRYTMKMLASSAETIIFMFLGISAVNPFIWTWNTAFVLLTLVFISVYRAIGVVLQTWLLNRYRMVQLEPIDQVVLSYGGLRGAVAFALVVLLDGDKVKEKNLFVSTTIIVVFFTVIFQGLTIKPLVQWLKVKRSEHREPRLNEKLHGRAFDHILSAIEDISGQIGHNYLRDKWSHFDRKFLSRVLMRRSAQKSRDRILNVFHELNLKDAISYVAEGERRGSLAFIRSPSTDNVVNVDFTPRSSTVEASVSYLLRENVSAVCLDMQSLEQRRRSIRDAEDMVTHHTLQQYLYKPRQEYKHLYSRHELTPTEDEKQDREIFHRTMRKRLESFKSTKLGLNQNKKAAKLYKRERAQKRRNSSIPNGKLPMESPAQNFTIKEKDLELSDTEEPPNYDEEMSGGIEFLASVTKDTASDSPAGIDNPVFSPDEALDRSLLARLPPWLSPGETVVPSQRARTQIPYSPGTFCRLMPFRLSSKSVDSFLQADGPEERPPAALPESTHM

SMILES | IC50 [nM] | inhibition at 10 µM [%]
Cc1noc(C)c1-c1ccc(O[C@H]2c3ccccc3C[C@@H]2N2CCCC2)cc1 [Example 407, 3,5-dimethyl-4-[4-(trans-(1S,2S)-2-pyrrolidin-1-ylindan-1-yloxy)phenyl]-isoxazole] | < 1000 | –
CC(=O)Nc1cccc(O[C@@H]2c3ccccc3C[C@H]2N2CCC(N)C2)c1 (mixture of isomers) [Example 687, N-{3-[rac-trans-(1,2)-2-(3-aminopyrrolidin-1-yl)indan-1-yloxy]phenyl}acetamide] | 1000 to 10000 | –
CS(=O)(=O)c1ccc(O[C@H]2c3cc(Cl)ccc3C[C@@H]2N2CC[C@@H](O)C2)c(Cl)c1 [Example 107, (R)-1-[trans-(1S,2S)-6-chloro-1-(2-chloro-4-methanesulfonylphenoxy)indan-2-yl]pyrrolidin-3-ol] | 1000 to 10000 | –
Cc1cc(C)n(-c2ccc(O[C@H]3c4cc(Cl)cc(Cl)c4C[C@@H]3N3CC[C@@H](O)C3)c(F)c2)n1 [Example 136, (R)-1-{trans-(1S,2S)-4,6-dichloro-1-[4-(3,5-dimethylpyrazol-1-yl)-2-fluorophenoxy]indan-2-yl}pyrrolidin-3-ol] | – | 20 to 50
CS(=O)(=O)c1ccc(OC2c3ccccc3CC2N2CCCC2)c(Cl)c1 (racemic) [Example 265, 1-[rac-trans-(1,2)-1-(2-chloro-4-methanesulfonylphenoxy)indan-2-yl]pyrrolidine] | < 1000 | –
CS(=O)(=O)c1ccc(O[C@H]2c3cc(Cl)cc(Cl)c3C[C@@H]2N2CCCNCC2)cc1 [Example 298, 1-[trans-(1S,2S)-4,6-dichloro-1-(4-methanesulfonylphenoxy)indan-2-yl]-[1,4]diazepane] | < 1000 | –
FC(F)(F)CCN[C@@H]1CCCN([C@H]2Cc3c(Cl)cc(Cl)cc3[C@@H]2Oc2ccc(-n3cncn3)cc2)C1 [Example 221, {(R)-1-[trans-(1S,2S)-4,6-dichloro-1-(4-[1,2,4]triazol-1-ylphenoxy)indan-2-yl]piperidin-3-yl}-(3,3,3-trifluoropropyl)amine] | < 1000 | –
N[C@@H]1CCCN([C@H]2CCc3ccccc3[C@@H]2Oc2cccc(OC(F)F)c2)C1 (racemic) [Example 56, (R)-1-[rac-trans-(1,2)-1-(3-difluoromethoxyphenoxy)-1,2,3,4-tetrahydronaphthalen-2-yl]piperidin-3-ylamine] | – | 20 to 50
CCN(CC)[C@@H]1Cc2ccccc2[C@H]1Oc1cccc(N2CCNCC2)c1 (racemic) [Example 626, Diethyl-[rac-trans-(1,2)-1-(3-piperazin-1-ylphenoxy)indan-2-yl]amine] | 1000 to 10000 | –
O=c1oc2ccc(O[C@@H]3c4ccccc4C[C@H]3N3C[C@H]4CNC[C@H]4C3)cc2s1 (racemic) [Example 577, 5-[rac-trans-(1,2)-2-(hexahydropyrrolo[3,4-c]pyrrol-2-yl)indan-1-yloxy]benzo[1,3]oxathiol-2-one] | 1000 to 10000 | –
O=C1OCc2cc(O[C@H]3c4ccccc4C[C@@H]3N3CCCC3)ccc21 (racemic) [Example 571, 5-(rac-trans-(1,2)-2-pyrrolidin-1-ylindan-1-yloxy)-3H-isobenzofuran-1-one] | 1000 to 10000 | –
CN(C)CCCN(C)[C@H]1Cc2ccccc2[C@@H]1Oc1ccc(S(C)(=O)=O)cc1 (racemic) [Example 669, N-[rac-trans-(1,2)-1-(4-methanesulfonylphenoxy)indan-2-yl]-N,N′,N′-trimethylpropane-1,3-diamine] | 1000 to 10000 | –
NCC1CCN([C@@H]2Cc3ccccc3[C@H]2Oc2ccc(C(N)=O)cc2)CC1 (racemic) [Example 548, 4-[rac-trans-(1,2)-2-(4-aminomethylpiperidin-1-yl)indan-1-yloxy]benzamide] | 1000 to 10000 | –
Cc1ccc(O[C@H]2c3ccccc3C[C@@H]2N2CCCC2)c(-c2c(C)noc2C)c1 [Example 408, 3,5-dimethyl-4-[5-methyl-2-(trans-(1S,2S)-2-pyrrolidin-1-ylindan-1-yloxy)phenyl]isoxazole] | – | 20 to 50
N#Cc1ccc(O[C@H]2c3ccccc3CC[C@@H]2N2CCC[C@@H](N)C2)cc1F (racemic) [Example 510, 4-[rac-trans-(1,2)-2-((R)-3-aminopiperidin-1-yl)-1,2,3,4-tetrahydronaphthalen-1-yloxy]-2-fluorobenzonitrile] | < 1000 | –
c1ccc2c(c1)CC[C@H](N1CCOCC1)[C@H]2Oc1cnc2ccccc2c1 (racemic) [Example 400, 3-(rac-trans-(1,2)-2-morpholin-4-yl-1,2,3,4-tetrahydronaphthalen-1-yloxy)quinoline] | – | 20 to 50
N[C@H]1CCCN([C@H]2CCc3ccccc3[C@@H]2Oc2ccc3oc(=O)sc3c2)C1 (racemic) [Example 580, 5-[rac-trans-(1,2)-2-((S)-3-aminopiperidin-1-yl)-1,2,3,4-tetrahydronaphthalen-1-yloxy]benzo[1,3]oxathiol-2-one] | – | 20 to 50
Cc1nnc(C)n1-c1ccc(O[C@H]2c3c(Cl)sc(Cl)c3CC[C@@H]2N2CCCC2)c(F)c1 (racemic) [Example 495, 4-[4-((4S,5S)-1,3-dichloro-5-pyrrolidin-1-yl-4,5,6,7-tetrahydrobenzo[c]thiophen-4-yloxy)-3-fluorophenyl]-3,5-dimethyl-4H-[1,2,4]triazole] | 1000 to 10000 | –
CS(=O)(=O)c1ccc(O[C@H]2c3cc(Cl)cc(Cl)c3C[C@@H]2N2CC[C@@H](N)C2)cc1 [Example 104, (R)-1-[trans-(1S,2S)-4,6-dichloro-1-(4-methanesulfonylphenoxy)indan-2-yl]pyrrolidin-3-ylamine] | < 1000 | –
CCc1ccc(O[C@@H]2c3ccccc3C[C@H]2N2CCC(CN)C2)c(C(C)(C)C)c1 (mixture of isomers) [Example 610, C-{1-[rac-trans-(1,2)-1-(2-tert-butyl-4-ethylphenoxy)indan-2-yl]pyrrolidin-3-yl}methylamine] | 1000 to 10000 | –
COc1cccc(OC)c1O[C@H]1c2ccccc2CC[C@@H]1N1CCC[C@@H](N)C1 (racemic) [Example 34, (R)-1-[rac-trans-(1,2)-1-(2,6-dimethoxyphenoxy)-1,2,3,4-tetrahydronaphthalen-2-yl]piperidin-3-ylamine] | – | 20 to 50
NS(=O)(=O)c1ccc(O[C@H]2c3cc(F)ccc3C[C@@H]2N2CCCC2)cc1 (racemic) [Example 474, 4-(rac-trans-(1,2)-6-fluoro-2-pyrrolidin-1-ylindan-1-yloxy)benzenesulfonamide] | 1000 to 10000 | –
CCOC(=O)c1ncoc1-c1ccc(O[C@H]2c3ccccc3CC[C@@H]2N2CCC[C@H](N)C2)cc1 (racemic) [Example 584, 5-{4-[rac-trans-(1,2)-2-((S)-3-aminopiperidin-1-yl)-1,2,3,4-tetrahydronaphthalen-1-yloxy]phenyl}oxazole-4-carboxylic acid ethyl ester] | 1000 to 10000 | –
N[C@@H]1CCCN([C@H]2CCc3ccccc3[C@@H]2Oc2ccc(-n3cncn3)cc2)C1 (racemic) [Example 61, (R)-1-[rac-trans-(1,2)-1-(4-[1,2,4]triazol-1-ylphenoxy)-1,2,3,4-tetrahydronaphthalen-2-yl]piperidin-3-ylamine] | 1000 to 10000 | –
N#CCc1cccc(O[C@H]2c3ccccc3CC[C@@H]2N2CCC[C@@H](N)C2)c1 (racemic) [Example 230, {3-[rac-trans-(1,2)-2-((R)-3-aminopiperidin-1-yl)-1,2,3,4-tetrahydronaphthalen-1-yloxy]phenyl}acetonitrile] | – | 20 to 50
c1ccc2c(c1)CC[C@H](N1CCOCC1)[C@H]2Oc1ccc2ccncc2c1 (racemic) [Example 588, 7-(rac-trans-(1,2)-2-morpholin-4-yl-1,2,3,4-tetrahydronaphthalen-1-yloxy)isoquinoline] | – | 20 to 50
CC(=O)Nc1cccc(O[C@@H]2c3ccccc3C[C@H]2N2CCC[C@H](N)C2)c1 (racemic) [Example 685, N-{3-[rac-trans-(1,2)-2-((S)-3-aminopiperidin-1-yl)indan-1-yloxy]phenyl}acetamide] | 1000 to 10000 | –
Cc1cc(C)c2cccnc2c1O[C@H]1c2ccccc2CC[C@@H]1N1CCOCC1 (racemic) [Example 573, 5,7-dimethyl-8-(rac-trans-(1,2)-2-morpholin-4-yl-1,2,3,4-tetrahydronaphthalen-1-yloxy)quinoline] | – | 20 to 50
Cc1nnc(C)n1-c1ccc(O[C@H]2c3cc(Cl)cc(Cl)c3C[C@@H]2N2CCCC2)cc1 [Example 500, 4-[4-(trans-(1S,2S)-4,6-dichloro-2-pyrrolidin-1-ylindan-1-yloxy)phenyl]-3,5-dimethyl-4H-[1,2,4]triazole] | < 1000 | –
N[C@@H]1CCCN([C@H]2CCc3ccccc3[C@@H]2Oc2ccc(Cl)cc2)C1 (racemic) [Example 66, (R)-1-[rac-trans-(1,2)-1-(4-chlorophenoxy)-1,2,3,4-tetrahydronaphthalen-2-yl]piperidin-3-ylamine] | – | 20 to 50
